Reference: PMC10447463, “Data-mining unveils structure–property–activity correlation of viral infectivity enhancing self-assembling peptides” (Nature Communications, 2023)
Where two headings read alike, the source gives them in different places.

Experiments:
[1] = tested on: HIV-1 infection of TZM-bl cells; test: HIV-1 infectivity enhancement assay, β-galactosidase luminescence; type: cell-based
[2] = type: physicochemical; design: key to Fibril / Fibril Formation / TEM 2cat / Fibril: 1 = fibrils present; 0 non-fibrillar structures; details: for Fibril / Fibril Formation: TEM, 1 mg/mL, uranyl acetate stain, qualitative
[3] = type: physicochemical; details: for ThT Cat. / ThT-Fluorescence (categorical): ThT-active if fluorescence at least twice the control
Outline: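 Preformed peptide fibrils (1 mg/mL) mixed with 50 µM ThT in PBS, 15 min at RT, fluorescence ex 440/em 488 nm versus PBS blank, triplicates. Zeta potential: peptides at 1 mg/mL in PBS pH 7.4, aged 1 d at RT, diluted in 1 mM KCl, Smoluchowski from electrophoretic mobility.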

[4] = Feb2021; figures match the 1.3 µM column
[5] = Feb2021; infectivity relative to virus only
[6] = Feb2021; log10 of infectivity relative to EF-C
[7] = Feb2021; n-fold infectivity relative to EF-C
[8] = infectivity class (low / medium / high) of each library peptide; main list in c1-c6, same classes repeated in sub-lists of sequences containing the hydrophobicity/charge patterns P+,H0,P+,H0,P0,H0,P0; P+,H0,P0,H0,P0,H0,P0; P+,H0,P0,H0
[9] = log10 of HIV-1 infection of TZM-bl cells relative to EF-C; Fig S15 source data; asymmetric std dev errors
[10] = ThT fluorescence relative to blank, blank = 42.1851851851852
[11] = infectivity class (low / medium / high) of the peptide in the sequence-pattern analysis, Fig. S22-A4; class limits not given
[12] = fibril-forming peptides with positive zeta-potential, low count rate
[13] = log10 of infection relative to EF-C, Figure 7B
[14] = n-fold infection vs virus only, relative to that of EF-C, 1.3 µM peptide
[15] = Feb2021 run; infectivity n-fold relative to virus alone
[16] = Feb2021 run; log10 of infectivity relative to EF-C
[17] = Feb2021 run; n-fold infectivity relative to EF-C
[18] = infectivity enhancement relative to EF-C (=1); Feb2021 run
[19] = infectivity n-fold relative to virus only; Feb2021 run
[20] = log10 of infectivity relative to EF-C; Feb2021 run
[21] = ThT fluorescence relative to blank (42.1851851851852 a.u.)
[22] = relative to blank 42.1851851851852 a.u.
[23] = log10 of infection relative to EF-C, Figure 6C

Substance | infectivity [1, 8] | Log10 Inf. rel. to EF-C [1, 9] | TEM: 1= fibrils, 0= aggregates (micelle), 0.5 = aggregates and fibrils, -1 = nothing obersved, STD prep [2] | Tht category (> 1.5 to blank = +) ([3]; category 1/0) | Inf. rel. EF-C [1, 14] | Fibril / Fibril Formation [2] | ThT Cat. / ThT-Fluorescence (categorical) [3] | n-fold to virus (Feb2021) [1, 15] | Log10 of Rel to EFC (Feb2021) [1, 16] | Rel-to EFC (Feb-2021) [1, 17] | Tht rel to blank (42.1851851851852) [3, 22] | further results
HLHLPLL [CN14] | low | -1.9991 | 0.5 | 0 (ThT-inactive (N-Fold <2)) | – | – | – | – | – | – | – | Absolute Infectivity / RLU /s (Feb2021) [1, 4]: 133.3 RLU /s; n-fold to virus (Feb2021) [1, 5]: 0.4211; Log10 of Rel to EFC (Feb2021) [1, 6]: -1.999; Rel-to EFC (Feb-2021) [1, 7]: 0.01002; Tht rel to blank (42.1851851851852) [3, 10]: 1.069
KIKIQIMQWN [VH16] | – | -0.1454 | – | – | – | – | – | – | – | – | – | infectivity [1, 11]: high; TEM: 1= fibrils, 0= aggregates (micelle), 0.5 = aggregates and fibrils, -1 = nothing obersved, STD prep ([2]; FigS26): 1; Tht category (> 1.5 to blank = +) ([3]; FigS26): 0 (Tht category (> 1.5 to blank = +))
RQGNINIVA [reference compound] | – | – | – | – | 0.12 | 1 | 1 (ThT. Cat is 1, if Rel. ThT >2) | – | – | – | – | infectivity enhancement, in words [1, 12]: do not enhance infectivity; Log10 Infection Rel EF-C [1, 13]: -0.93
KFKFQFF [TG6] | medium | -0.9142 | 1 | 1 (ThT. Cat is 1, if Rel. ThT >2) | – | – | – | 5.12 | -0.9142 | 0.1218 | 2.58 | Absolute Infectivity / RLU /s (Feb2021) [1, 4]: 2850 RLU /s; n-fold to virus (Feb2021) [1, 5]: 5.12; Log10 of Rel to EFC (Feb2021) [1, 6]: -0.9142; Rel-to EFC (Feb-2021) [1, 7]: 0.1218; Rel-to EFC (Feb-2021) [1, 18]: 0.1218; n-fold to virus (Feb2021) [1, 19]: 5.12; Log10 of Rel to EFC (Feb2021) [1, 20]: -0.9142; Tht rel to blank (42.1851851851852) [3, 21]: 2.58; Tht rel to blank (42.1851851851852) [3, 10]: 2.58
RFWFWFW | – | – | – | – | 0.32 | 0 | 1 (ThT. Cat is 1, if Rel. ThT >2) | – | – | – | – | Log10 Infection Rel EF-C [1, 23]: -0.495
RGDKIKIQINM [MG8a / CN17] | medium | -0.3838 | 1 | 1 (ThT. Cat is 1, if Rel. ThT >2) | – | – | – | 17.36 | -0.3838 | 0.4132 | 9.126 | Absolute Infectivity / RLU /s (Feb2021) [1, 4]: 9554 RLU /s; n-fold to virus (Feb2021) [1, 5]: 17.36; Log10 of Rel to EFC (Feb2021) [1, 6]: -0.3838; Rel-to EFC (Feb-2021) [1, 7]: 0.4132; Rel-to EFC (Feb-2021) [1, 18]: 0.4132; n-fold to virus (Feb2021) [1, 19]: 17.36; Log10 of Rel to EFC (Feb2021) [1, 20]: -0.3838; Tht rel to blank (42.1851851851852) [3, 21]: 9.126; Tht rel to blank (42.1851851851852) [3, 10]: 9.126
IIIK [reference compound] | – | – | – | – | 0.05 | 0 | 0 (ThT-inactive (N-Fold <2)) | – | – | – | – | Log10 Infection Rel EF-C [1, 13]: -1.29
CKIKIQIII [AR0 / F19] | high | -0.01045 | 1 | 1 (ThT. Cat is 1, if Rel. ThT >2) | – | – | – | 41.02 | -0.01045 | 0.9762 | 4.14 | infectivity [1, 11]: high
KIKIQINMWWQ [VH11] | high | 0.5063 | 0.5 | 0 (ThT-inactive (N-Fold <2)) | – | – | – | 134.825 | 0.5063 | 3.209 | 1.314 | infectivity [1, 11]: high
CKFKFPF | – | – | – | – | 0.02 | 0 | 0 (ThT-inactive (N-Fold <2)) | – | – | – | – | Inf. rel. EF-C ([1]; HIV-1 infection relative to EF-C; Fig 23 plot, panels A and B; mean of 3 values): 0.02481; Inf. rel. EF-C ([1]; HIV-1 infection relative to EF-C; Fig 23 plot, single data point, replicate 1): 0.05139; Inf. rel. EF-C ([1]; HIV-1 infection relative to EF-C; Fig 23 plot, single data point, replicate 2): 0.01572; Inf. rel. EF-C ([1]; HIV-1 infection relative to EF-C; Fig 23 plot, single data point, replicate 3): 0.007313; Log10 Infection Rel EF-C [1, 23]: -1.6054
GYVIIK [reference compound] | – | – | – | – | 0.10 | 0 | 0 (ThT-inactive (N-Fold <2)) | – | – | – | – | infectivity enhancement, in words [1, 12]: do not enhance infectivity; Log10 Infection Rel EF-C [1, 13]: -0.99
